The source of these data is patent US10144715B2, “Piperazine derivatives as liver X receptor modulators” (priority 2014, dated 2018).

Like-named read-outs stand apart in the source and are kept apart here.

The target in experiment [1] is Gal4 DNA binding domain fused to the LBD of LXRβ in HEK293 cells (Homo sapiens (Human), UniProt P55055). Description: cell-based.
Experiment [2] concerns the target Gal4 DNA binding domain fused to the LBD of LXRα in HEK293 cells (Homo sapiens (Human), UniProt Q13133). Put plainly: LXR luciferase transcriptional reporter gene assay, agonist mode, LXRα. Type of experiment: cell-based. To be noted: for EC50: read-out: Cell LXRα EC50. In general terms: A reporter such as luciferase makes a cellular process visible.
The target of experiment [3] is LXR α LBD protein (Homo sapiens (Human), UniProt Q13133). Put plainly: LXR α radioligand binding assay (SPA, competition with [3H]TO901317). To be noted: read-out: LXRα Binding Ki.
Sequence of LXR α LBD protein (Q13133 209-447): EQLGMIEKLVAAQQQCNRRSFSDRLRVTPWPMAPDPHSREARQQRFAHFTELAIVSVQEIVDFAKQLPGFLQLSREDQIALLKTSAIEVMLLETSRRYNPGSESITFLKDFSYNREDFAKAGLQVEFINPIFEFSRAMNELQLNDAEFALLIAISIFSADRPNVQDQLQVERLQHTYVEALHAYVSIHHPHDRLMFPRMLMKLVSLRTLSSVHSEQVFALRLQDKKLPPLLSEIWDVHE
Experiment [4] concerns the target LXR β LBD protein (Homo sapiens (Human), UniProt P55055). Description: biochemical. Type of experiment: binding.
Setting [5] is: Biological Test Example 2, agonist mode.
Where [6] appears, read: Biological Test Example 2, agonist mode, read-out: Cell LXRβ EC50.
Setting [7] is: Biological Test Example 1, read-out: LXRβ Binding Ki.
Setting [8] is: agonist mode, read-out: Cell LXRβ EC50.

Sequence of Gal4 DNA binding domain fused to the LBD of LXRα in HEK293 cells (Q13133 209-447): as above
Sequence of LXR β LBD protein (P55055 222-460 limits assumed): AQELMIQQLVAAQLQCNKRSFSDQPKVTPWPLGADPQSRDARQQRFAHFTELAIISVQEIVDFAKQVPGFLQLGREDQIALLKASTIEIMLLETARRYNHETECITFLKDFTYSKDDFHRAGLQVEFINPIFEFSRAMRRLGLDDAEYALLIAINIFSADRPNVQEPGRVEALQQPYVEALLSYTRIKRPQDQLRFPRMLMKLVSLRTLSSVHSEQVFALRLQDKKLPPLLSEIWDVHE
Sequence of Gal4 DNA binding domain fused to the LBD of LXRβ in HEK293 cells (P55055 222-460 limits assumed): as above

For orientation: EC50 means the midpoint of the concentration-response curve. The Ki is the equilibrium dissociation constant of an inhibitor or competing ligand from its target. In the case of `Cc1coc(-c2ccc(N3CCN(c4ncc(CO)c(C(F)(F)F)n4)[C@H](C(C)C)C3)cc2S(C)(=O)=O)n1` [11-8, (R)-(2-(2-isopropyl-4-(4-(4-methyloxazol-2-yl)-3-(methylsulfonyl)phenyl)piperazin-1-yl)-4-(trifluoromethyl)pyrimidin-5-yl)methanol], the results for the 50% effective concentration (EC50) in experiment [1] and in experiment [2] (agonist mode) were 405 nM and 2930 nM, respectively. Further, the “Cell LXRβ efficacy” value in experiment [1] (agonist mode) is listed as 405 (53) %. Also, the “Cell LXRα efficacy” value in experiment [2] is 2934 (53) %. Besides, the Ki in experiment [3] worked out at 1160 nM; in experiment [4] (read-out: LXRβ Binding Ki) it was 133 nM.

`CC(C)[C@@H]1CN(c2ccc(F)c(S(C)(=O)=O)c2)CCN1c1ncc(C(=O)N(C)CCCNC(=O)OC(C)(C)C)c(C(F)(F)F)n1` [17-23, tert-butyl (R)-(3-(2-(4-(4-fluoro-3-(methylsulfonyl)phenyl)-2-isopropylpiperazin-1-yl)-N-methyl-4-(trifluoromethyl)pyrimidine-5-carboxamido)propyl)carbamate]: the concentration giving a half-maximal response (EC50) in experiment [1] and in experiment [2] (agonist mode) was above 20000 nM each time. Further, the Ki was found to be 1420 nM in experiment [3] and 257 nM in experiment [4] (read-out: LXRβ Binding Ki).

With `CC(C)[C@@H]1CN(c2ccc(CO)c(S(C)(=O)=O)c2)CCN1c1nc(C(F)(F)F)c(C(=O)N(C)C)s1` [17-34, (R)-2-(4-(4-(hydroxymethyl)-3-(methylsulfonyl)phenyl)-2-isopropylpiperazin-1-yl)-N,N-dimethyl-4-(trifluoromethyl)thiazole-5-carboxamide], the EC50 turned out to be 105 nM in experiment [1] and 465 nM in experiment [2] (agonist mode). The “Cell LXRβ efficacy” value in experiment [1] (agonist mode) is recorded as 105 (94) %. In addition, the “Cell LXRα efficacy” value in experiment [2] is reported as 465 (98) %. The inhibition constant (Ki) in experiment [3] was determined as 152 nM; in experiment [4] (read-out: LXRβ Binding Ki), 23 nM.

As to `COCCN(C)C(=O)c1cnc(N2CCN(c3ccc(F)c(S(C)(=O)=O)c3)C[C@H]2C(C)C)nc1C` [17-26, (R)-2-(4-(4-fluoro-3-(methylsulfonyl)phenyl)-2-isopropylpiperazin-1-yl)-N-(2-methoxyethyl)-N,4-dimethylpyrimidine-5-carboxamide], the half-maximal effective concentration (EC50) in experiment [1] and in experiment [2] (agonist mode) was above 20000 nM each time. Further, the inhibition constant (Ki) in experiment [3] was above 3330 nM; in experiment [4] (read-out: LXRβ Binding Ki), 2330 nM.

With `CC(C)[C@@H]1CN(c2ccc(F)c(S(C)(=O)=O)c2)CCN1c1nc2ncccc2s1` [7-59, (R)-2-(4-(4-fluoro-3-(methylsulfonyl)phenyl)-2-isopropylpiperazin-1-yl)thiazolo[4,5-b]pyridine], the “Cell LXRβ efficacy” value in experiment [1] is given as 289 (83) %. Moreover, the figures for the EC50 in experiment [1] and in experiment [2] were 289 nM and 827 nM, respectively. Besides, the “Cell LXRα efficacy” value in experiment [2] was 827 (84) %. Also, the Ki in experiment [3] worked out at 281 nM; in experiment [4] (read-out: LXRβ Binding Ki) it was 39 nM.

Turning to `CC(C)[C@H]1CN(c2ccc(CO)c(S(C)(=O)=O)c2)CCN1Cc1ccc(C(F)(F)F)o1` [47-5, (S)-(4-(3-isopropyl-4-((5-(trifluoromethyl)furan-2-yl)methyl)piperazin-1-yl)-2-(methylsulfonyl)phenyl)methanol], the “Cell LXRβ efficacy” value in experiment [1] is on record as 248 (50) %. In addition, the EC50 in experiment [1] stood at 248 nM; in experiment [2] it was 1190 nM. The “Cell LXRα efficacy” value in experiment [2] was 1187 (62) %. Also, the Ki in experiment [3] amounted to 1090 nM; in experiment [4] (read-out: LXRβ Binding Ki), 109 nM.

As to `COCc1ccc(N2CCN(C[C@H]3CC[C@H](C(F)(F)F)CC3)[C@@H](c3ccccc3)C2)cc1S(C)(=O)=O` [48-49, (S)-4-(4-(methoxymethyl)-3-(methylsulfonyl)phenyl)-2-phenyl-1-(((1r,4S)-4-(trifluoromethyl)cyclohexyl)methyl)piperazine], the “Cell LXRβ efficacy” value in experiment [1] (setting [5]) is 12%. Further, the results for the EC50 in experiment [1] (setting [6]) and in experiment [2] were 1350 nM and 9840 nM, respectively. Also, the “Cell LXRα efficacy” value in experiment [2] is listed as 9842 (9) %. Further, the Ki in experiment [3] is 13800 nM; in experiment [4] (setting [7]) it was 1490 nM.

For the molecule `COC1CN(C(=O)c2cnc(N3CCN(c4ccc(F)c(S(C)(=O)=O)c4)C[C@H]3C(C)C)nc2C(F)(F)F)C1` [17-9, (R)-(2-(4-(4-fluoro-3-(methylsulfonyl)phenyl)-2-isopropylpiperazin-1-yl)-4-(trifluoromethyl)pyrimidin-5-yl)(3-methoxyazetidin-1-yl)methanone], the EC50 in experiment [1] and in experiment [2] was above 20000 nM throughout. Further, the Ki in experiment [3] is above 3330 nM; in experiment [4] (read-out: LXRβ Binding Ki), 410 nM.

`CS(=O)(=O)c1cc(N2CCN(C[C@H]3CC[C@@H](C(F)(F)F)CC3)[C@@H](c3ccccc3)C2)ccc1C#N` (single isomer, unassigned) [50-6]: in experiment [1] (setting [5]), the “Cell LXRβ efficacy” value came out at 53%. Moreover, the EC50 in experiment [1] (setting [6]) was 226 nM; in experiment [2], 429 nM. The “Cell LXRα efficacy” value in experiment [2] was 429 (81) %. In addition, the inhibition constant (Ki) in experiment [3] was 241 nM; in experiment [4] (setting [7]), 58 nM.

Regarding `CC(C)(O)[C@H]1CCC[C@@H](CN2CCN(c3cccc(S(C)(=O)=O)c3)CC2c2ccccc2)C1` (stereo partly drawn) [48-25, 2-((1S,3R)-3-((4-(3-(methylsulfonyl)phenyl)-2-phenylpiperazin-1-yl)methyl)cyclohexyl)propan-2-ol], the concentration giving a half-maximal response (EC50) in experiment [1] and in experiment [2] was above 20000 nM in each case. For the same molecule, the Ki in experiment [3] was determined as 1240 nM; in experiment [4] it was 178 nM.

Regarding `CC(C)[C@@H]1CN(c2ccc(CO)c(S(C)(=O)=O)c2)CCN1c1ncc(C(C)(C)O)c(C(F)(F)F)n1` [10-7, (R)-2-(2-(4-(4-(hydroxymethyl)-3-(methylsulfonyl)phenyl)-2-isopropylpiperazin-1-yl)-4-(trifluoromethyl)pyrimidin-5-yl)propan-2-ol], the EC50 was 235 nM in experiment [1] and 1520 nM in experiment [2] (agonist mode). In addition, the “Cell LXRβ efficacy” value in experiment [1] (agonist mode) is 235 (40) %. Besides, the “Cell LXRα efficacy” value in experiment [2] is given as 1520 (51) %. The Ki was found to be 261 nM in experiment [3] and 18 nM in experiment [4] (read-out: LXRβ Binding Ki).

Take `CC(C)[C@H]1CN(c2cccc(S(C)(=O)=O)c2)CCN1CC1CCCOC1` (stereo partly drawn) [Cpd No 51-1, (2S)-2-isopropyl-4-(3-(methylsulfonyl)phenyl)-1-((tetrahydro-2H-pyran-3-yl)methyl)piperazine]: the “Cell LXRβ efficacy” value in experiment [1] is 673 (32) %. Moreover, the 50% effective concentration (EC50) in experiment [1] was found to be 673 nM; in experiment [2] it was 7860 nM. For the same molecule, the “Cell LXRα efficacy” value in experiment [2] was 7863 (36) %. Besides, the inhibition constant (Ki) was above 3330 nM in experiment [3] and 1530 nM in experiment [4] (read-out: LXRβ Binding Ki).

For the molecule `CS(=O)(=O)c1cc(N2CCN(C[C@H]3CC[C@H](C(F)(F)F)CC3)[C@H](c3ccccc3)C2)ccc1CO` (single isomer, unassigned) [48-44], the “Cell LXRβ efficacy” value in experiment [1] (agonist mode) is 34%. The concentration for a half-maximal effect (EC50) in experiment [1] (setting [8]) stood at 3100 nM; in experiment [2] it was 11600 nM. For the same molecule, in experiment [2], the “Cell LXRα efficacy” value is 11556 (50) %. The inhibitory constant (Ki) stood at 10800 nM in experiment [3] and 972 nM in experiment [4] (read-out: LXRβ Binding Ki).

As to `CS(=O)(=O)c1cccc(N2CCN(C[C@@H]3CCC(C(F)(F)F)OC3)[C@@H](c3ccc(F)cc3)C2)c1` (single isomer, unassigned) [49-12], the EC50 amounted to 522 nM in experiment [1] and 2640 nM in experiment [2]. Also, the “Cell LXRβ efficacy” value in experiment [1] (setting [5]) is given as 522 (25) %. In addition, in experiment [2], the “Cell LXRα efficacy” value is given as 2637 (51) %. The inhibitory constant (Ki) in experiment [3] was 1770 nM; in experiment [4], 184 nM.

`CC(C)[C@@H]1CN(c2ccc(F)c(S(C)(=O)=O)c2)CCN1c1nc2c(F)cccc2s1` [7-54, (R)-4-fluoro-2-(4-(4-fluoro-3-(methylsulfonyl)phenyl)-2-isopropylpiperazin-1-yl)benzo[d]thiazole]: in experiment [1], the “Cell LXRβ efficacy” value is 77 (80) % and a half-maximal effect (EC50) was put at 77 nM. Further, in experiment [2], the “Cell LXRα efficacy” value is 371 (95) % and the half-maximal effective concentration (EC50) was 371 nM. Besides, the Ki in experiment [3] is 68 nM. For the same molecule, in experiment [4] (read-out: LXRβ Binding Ki), the Ki turned out to be 9 nM.

For the molecule `CC(C)[C@H]1CN(c2cccc(S(C)(=O)=O)c2)CCN1CC1CCOCC1` [51-2, (S)-2-isopropyl-4-(3-(methylsulfonyl)phenyl)-1-((tetrahydro-2H-pyran-4-yl)methyl)piperazine], the figures for the EC50 in experiment [1] and in experiment [2] (setting [5]) were 1360 nM and above 20000 nM, respectively. In experiment [1] (setting [5]), the “Cell LXRβ efficacy” value is given as 1362 (7) %. Besides, the Ki in experiment [3] is above 3330 nM; in experiment [4] (setting [7]) it was above 2500 nM.

Take `CS(=O)(=O)c1cccc(N2CCN(C[C@H]3CC[C@](C)(O)CC3)[C@@H](c3ccccc3)C2)c1` (single isomer, unassigned) [Cpd No 48-7]: the 50% effective concentration (EC50) in experiment [1] (setting [8]) was above 20000 nM; in experiment [2], 4660 nM. Further, the “Cell LXRα efficacy” value in experiment [2] is on record as 4661 (6) %. For the same molecule, the Ki in experiment [3] came out at 4530 nM; in experiment [4] (read-out: LXRβ Binding Ki) it was 465 nM.

`CC(C)[C@@H]1CN(c2ccc(F)c(S(C)(=O)=O)c2)CCN1c1cncc(C(F)(F)F)n1` [7-45, (R)-2-(4-(4-fluoro-3-(methylsulfonyl)phenyl)-2-isopropylpiperazin-1-yl)-6-(trifluoromethyl)pyrazine]: the “Cell LXRβ efficacy” value in experiment [1] is 136 (71) %. The concentration giving a half-maximal response (EC50) was 136 nM in experiment [1] and 377 nM in experiment [2] (agonist mode). In experiment [2], the “Cell LXRα efficacy” value is reported as 377 (85) %. The Ki in experiment [3] was 115 nM; in experiment [4] (read-out: LXRβ Binding Ki) it was 12 nM.

Consider `CC(C)(F)CC1CN(c2ccc(F)c(S(C)(=O)=O)c2)CCN1c1ccc(C(F)(F)F)cn1` (centres unmarked) [35-1, 2-(2-fluoro-2-methylpropyl)-4-(4-fluoro-3-(methylsulfonyl)phenyl)-1-(5-(trifluoromethyl)pyridin-2-yl)piperazine], for which the EC50 in experiment [1] was determined as 499 nM; in experiment [2], 1520 nM. In addition, the “Cell LXRβ efficacy” value in experiment [1] (agonist mode) is listed as 499 (88) %. In experiment [2], the “Cell LXRα efficacy” value is listed as 1522 (97) %. The Ki worked out at 272 nM in experiment [3] and 38 nM in experiment [4] (read-out: LXRβ Binding Ki).
